This passage reports Competition results from ChEMBL document CHEMBL1144436, “1-(Phenyl)isoquinoline carboxamides: a novel class of subtype selective inhibitors of thyrotropin-releasing hormone (TRH) receptors” (Bioorg Med Chem Lett, 2005).

The structures appear in SMILES notation. Where “and” joins values, the source holds several entries; their conditions need not be identical. Identical values can stand only once.

The target in this assay is T1, Thyrotropin-releasing hormone receptor (Mus musculus) (UniProt P21761).
T1 sequence (whole entry): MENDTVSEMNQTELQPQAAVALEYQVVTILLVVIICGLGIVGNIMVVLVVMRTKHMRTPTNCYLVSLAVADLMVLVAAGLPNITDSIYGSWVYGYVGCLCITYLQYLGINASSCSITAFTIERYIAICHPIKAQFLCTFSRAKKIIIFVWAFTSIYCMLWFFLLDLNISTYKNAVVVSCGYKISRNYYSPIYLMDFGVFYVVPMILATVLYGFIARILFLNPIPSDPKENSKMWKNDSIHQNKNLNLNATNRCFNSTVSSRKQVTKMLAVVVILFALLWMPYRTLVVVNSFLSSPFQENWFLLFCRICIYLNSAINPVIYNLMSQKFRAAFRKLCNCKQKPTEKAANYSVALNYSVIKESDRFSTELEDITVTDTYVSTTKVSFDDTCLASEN
Put plainly: Displacement of [3H]MeTRH from Thyrotropin releasing hormone receptor 1 was measured; expressed as %.

`CCCCN(C)C(=O)c1cc2ccccc2c(-c2ccccc2Cl)n1`: the Competition was 84% and 92%.

With `CNC(=O)c1cc2ccccc2c(-c2ccccc2Cl)n1`, the Competition was 33% and 29%.

On to `CCC(C)NC(=O)c1cc2ccccc2c(-c2ccc([N+](=O)[O-])cc2)n1` (configuration not stated), for which the Competition is 16% and 40%.

For the molecule `CCC(C)NC(=O)c1cc2ccccc2c(-c2cccc([N+](=O)[O-])c2)n1` (configuration not stated), the Competition was 21% and 31%.

As to `CCCNC(=O)c1cc2ccccc2c(-c2ccccc2Cl)n1`, the Competition is 78% and 91%.

`CCC(C)N(C)C(=O)c1cc2ccccc2c(-c2ccccc2Cl)n1` (stereo in doubt): the Competition was 44% and 56%.

Consider `CCC(C)N(C)C(=O)c1cc2ccccc2c(-c2ccccc2Cl)n1` (stereo in doubt; 10), for which the Competition is 73% and 90%.
